According to patent US20250263436A1, “BROAD-SPECTRUM ANTIVIRAL DRUG FOR ENTEROVIRUS, AND APPLICATION” (WUHAN INSTITUTE OF VIROLOGY, CHINESE ACADEMY OF SCIENCES, priority 2020, published 2025):
Where “and” joins values, the source holds several entries; their conditions need not be identical. Identical values can stand only once.

Key:
[1] = Toxicity assay in RD cells (CCK-8); type: cell-based; details: human, RD cells, 24 h
Procedure: (§1) (1) Different cells were plated in a 96-well plate at 100 μL per well.
(§2) (2) When the cells grew to a confluence of 70%-80%, the DMEM medium containing 10% serum was replaced with a DMEM medium containing 2% serum, and a certain concentration gradient of polypeptide RQ was added, so that the final concentrations of the polypeptide in the wells were 0.073242 μM, 0.146484 μM, 0.292969 μM, 0.585938 μM, 1.171875 μM, 2.34375 μM, 4.6875 μM, 9.375 μM, 18.75 μM, 37.5 μM, 75 μM, 150 μM, and 300 μM, respectively.
(§3) (3) The samples were collected 24 h after the addition of the polypeptide, and then 10 μL of live cell detection reagent CCK-8 was added to each well and mixed well.
(§4) (4) The plate was placed at 37° C. for 2 h.
(§5) (5) The absorbance value at OD450 was detected by a microplate reader.
(§6) (1) RD cells were plated in a 96-well plate at 100 μL per well.
(§7) (2) When the cells grew to a confluence of 70%-80%, the DMEM medium containing 10% serum was replaced with a DMEM medium containing 2% serum, and B-RQ was added so that the final concentrations in the wells were 0.46 μM, 2.34 μM, 4.68 μM, 9.37 μM, 18.75 μM, 37.5 μM, 75 μM, and 150 μM.

RD cells = assay: Toxicity assay in RD cells (CCK-8); type: cell-based; details: 24 h
Procedure: as §1, §2, §3, §4, §5, §6, §7

EV71 [2] = assay: Inhibition of EV71 in huh7 cells (viral RNA, qRT-PCR); type: cell-based, enterovirus 71 (EV71); details: anti-EV71 in huh7 cells
Procedure: (§8) (1) Different cells were plated in a 24-well plate.
(§9) (2) When the cells grew to a confluence of 70%-80%, the DMEM medium containing 10% serum was replaced with a DMEM medium containing 2% serum (the DMEM medium containing 2% serum was added in each well at an amount of 0.5 mL), and 5 μL of EV71 virus of 1×10^6 PFU/mL was added to each well.
(§10) (3) After 1 h, different polypeptides (RQ or control TAT) with final concentrations of 0.3125 μM, 0.625 μM, 1.25 μM, 2.5 μM, and 5 μM were added respectively. The group without polypeptide added was used as a control.
(§11) (4) The samples were collected 24 h after the infection of EV71 virus, and RNA was extracted with the total RNA extraction kit.
(§12) (5) The supernatant was discarded, then 350 μL of TRK lysate was added to each well, and the plate was put on a shaker for 5 min.
(§13) (6) 350 μL of 70% ethanol (DEPC) was added to each well, and then the plate was put on a shaker for 5 min.
(§14) (7) The solution in each well was transferred to a RNA extraction column for 1 min of centrifugation at 12000 g.
(§15) (8) The solution obtained in the recovery tube was reloaded on the column again for 1 min of centrifugation at 12000 g.
(§16) (9) RNA washing buffer 1 was added in the column for 30 s of centrifugation at 12000 g. […]
(§17) (14) 2 μL of RNA sample was subjected to a fluorescence quantitative experiment using the one step qRT-PCR kit.

EV71 [3] = assay: Inhibition of EV71 in Vero cells (viral RNA, qRT-PCR); type: cell-based, enterovirus 71 (EV71); details: anti-EV71 in Vero cells
Procedure: as §8, §9, §10, §11, §12, §13, §14, §15
(9) RNA washing buffer 1 was added in the column for 30 s of centrifugation at 12000 g.
(10) RNA washing buffer 2 was added in the column for 1 min of centrifugation at 12000 g.
(11) Step (10) was repeated.
(12) The column alone was centrifuged at 12000 g for 2 min to completely remove the residual RNA washing buffer.
(13) 50 μL of DEPC water was added to the column for 2 min of centrifugation at 12000 g.
as §17
(1) Vero E6 cells were plated in a 24-well plate.
(3) After 1 h, different polypeptides (LQ or SQ) with final concentrations of 0.3125 μM, 0.625 μM, 1.25 μM, 2.5 μM, and 5 μM were added respectively. The group without polypeptide added was used as a control.

Echo 11 = assay: Inhibition of Echo 11 in RD cells (viral RNA, qRT-PCR); type: cell-based; details: inhibiting Echo 11 in RD cells
Procedure: (§18) (1) RD cells were plated in a 24-well plate.
(2) When the cells grew to a confluence of 70%-80%, the DMEM medium containing 10% serum was replaced with a DMEM medium containing 2% serum (the DMEM medium containing 2% serum was added in each well at an amount of 0.5 mL), and 5 μL of Echo 11 virus of 1×10^6 PFU/mL was added to each well.
(3) After 1 h, the polypeptides with final concentrations of 0.3125 μM, 0.625 μM, 1.25 μM, 2.5 μM, and 5 μM were added respectively. The group without polypeptide added was used as a control.
(4) The samples were collected 24 h after the infection of Echo 11 virus, and RNA was extracted with the total RNA extraction kit.
as §12, §13, §14, §15, §16
(14) 2 μL of RNA sample was subjected to a fluorescence quantitative experiment using the one step qRT-PCR kit. […]

CVA16 = assay: Inhibition of CVA16 in RD cells (viral RNA, qRT-PCR); type: cell-based; details: anti-CVA16 in RD cells
Procedure: as §18
(2) When the cells grew to a confluence of 70%-80%, the DMEM medium containing 10% serum was replaced with a DMEM medium containing 2% serum (the DMEM medium containing 2% serum was added in each well at an amount of 0.5 mL), and 5 μL of CVA16 virus of 1×10^6 PFU/mL was added to each well.
(3) After 1 h, different polypeptides with final concentrations of 0.3125 μM, 0.625 μM, 1.25 μM, 2.5 μM, and 5 μM were added respectively. The group without polypeptide added was used as a control.
(4) The samples were collected 24 h after the infection of CVA16 virus, and RNA was extracted with the total RNA extraction kit.
as §12, §13, §14, §15, §16, §17

## CC[C@H](C)[C@H](NC(=O)[C@H](C)NC(=O)[C@H](CO)NC(=O)[C@H](CCCNC(=N)N)NC(=O)[C@H](CC(N)=O)NC(=O)[C@H](CC(N)=O)NC(=O)[C@H](Cc1ccc(O)cc1)NC(=O)[C@H](CCC(=O)O)NC(=O)[C@H](CCCNC(=N)N)NC(=O)CNC(=O)[C@H](CO)NC(=O)CNC(=O)[C@H](CCCNC(=N)N)NC(=O)[C@H](CCCNC(=N)N)NC(=O)[C@H](CCCNC(=N)N)NC(=O)[C@H](CCC(N)=O)NC(=O)[C@H](CCCNC(=N)N)NC(=O)[C@H](CCCNC(=N)N)NC(=O)[C@H](CCCCN)NC(=O)[C@H](CCCCN)NC(=O)[C@H](CCCNC(=N)N)NC(=O)CNC(=O)[C@@H](N)Cc1ccc(O)cc1)C(=O)NCC(=O)N[C@@H](CC(N)=O)C(=O)N[C@H](C(=O)N[C@H](C(=O)N[C@@H](CCC(=O)O)C(=O)N[C@@H](C)C(=O)N[C@@H](CC(C)C)C(=O)N[C@@H](Cc1ccccc1)C(=O)N[C@@H](CCC(N)=O)C(=O)O)[C@@H](C)CC)[C@@H](C)O [RQ]
[1]; RQ 0.073242 μM, read-out: Viability of RD cell (%)
  viability at 24 h, 0.073242 µM: 99.8%
[1]; RQ 0.146484 μM, read-out: Viability of RD cell (%)
  viability at 24 h, 0.146484 µM: 99.2%
[1]; RQ 0.292969 μM, read-out: Viability of RD cell (%)
  viability at 24 h, 0.292969 µM: 101%
[1]; RQ 0.585938 μM, read-out: Viability of RD cell (%)
  viability at 24 h, 0.585938 µM: 98.9%
[1]; RQ 1.171875 μM, read-out: Viability of RD cell (%)
  viability at 24 h, 1.17188 µM: 99.6%
[1]; RQ 2.34375 μM, read-out: Viability of RD cell (%)
  viability at 24 h, 2.34375 µM: 98.8%
[1]; RQ 4.6875 μM, read-out: Viability of RD cell (%)
  viability at 24 h, 4.6875 µM: 98.3%
[1]; RQ 9.375 μM, read-out: Viability of RD cell (%)
  viability at 24 h, 9.375 µM: 98.4%
[1]; RQ 18.75 μM, read-out: Viability of RD cell (%)
  viability at 24 h, 18.75 µM: 101%
[1]; RQ 37.5 μM, read-out: Viability of RD cell (%)
  viability at 24 h, 37.5 µM: 101%
[1]; RQ 75 μM, read-out: Viability of RD cell (%)
  viability at 24 h, 75 µM: 102%
[1]; RQ 150 μM, read-out: Viability of RD cell (%)
  viability at 24 h, 150 µM: 8.73%
[1]; CCK-8
  CC50 at 24 h: > 150 µM
RD cells; RQ 0.073242 μM
  Viability of RD cell (%): 100.3321% and 99.8893%
RD cells; RQ 0.146484 μM
  Viability of RD cell (%): 102.3247% and 99.94%
RD cells; RQ 0.292969 μM
  Viability of RD cell (%): 100.2214% and 99.17%
RD cells; RQ 0.585938 μM
  Viability of RD cell (%): 103.5978% and 102.7122%
RD cells; RQ 1.171875 μM
  Viability of RD cell (%): 99% and 99.23%
RD cells; RQ 2.34375 μM
  Viability of RD cell (%): 98.51%
RD cells; RQ 4.6875 μM
  Viability of RD cell (%): 99.45% and 100.8856%
RD cells; RQ 9.375 μM
  Viability of RD cell (%): 100.7196% and 102.6568%
RD cells; RQ 18.75 μM
  Viability of RD cell (%): 103.4317% and 102.4354%
RD cells; RQ 37.5 μM
  Viability of RD cell (%): 103.9852% and 103.5424%
RD cells; RQ 75 μM
  Viability of RD cell (%): 103.5978% and 102.9889%
RD cells; RQ 150 μM
  Viability of RD cell (%): 8.782% and 8.007%
EV71 [2]
  IC50: 0.41 µM
EV71 [3]
  IC50: 0.66 µM
Echo 11
  IC50: 0.37 µM
CVA16
  IC50: 2.16 µM
